In PubChem BioAssay AID1963825 (Molecular Pharmacology Branch, DTP, NCI, 2024):

Assay: Anticancer human tumor 997537-175-T-J1-PDC patient-derived colon adenocarcinoma cell line growth inhibition [POLQ]
Conditions: 997537-175-T-J1-PDC complex spheroid viability, combination with POLQ inhibitors; for IC50: curve of first compound; for viability, T/C: stronger effect = lower value
In short: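 Three-cell-type spheroids modelling solid tumor plus stroma served as the readout system; POL inhibitors were tested individually and in combination, concentration ranges set by clinical Cmax where known.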
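Note: luminescence signal used as a surrogate for viable cells; spheroids exposed to drugs for seven days before readout.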

COc1cccc2c1C(=O)c1c(O)c3c(c(O)c1C2=O)CC(O)(C(=O)CO)CC3OC1CC(N)C(O)C(C)O1 (configuration not stated) + COC1C(OC(N)=O)C(O)C(Oc2ccc3c(O)c(NC(=O)c4ccc(O)c(CC=C(C)C)c4)c(=O)oc3c2C)OC1(C)C
IC50 (second compound 0.0316 µM): 2.49 µM
IC50 (second compound 0.1 µM): 1.66 µM
IC50 (second compound 0.316 µM): 2.22 µM
IC50 (second compound 1 µM): 3.23 µM
IC50 (second compound 3.16 µM): 2.03 µM
IC50 (second compound 10 µM): 2.77 µM
viability, T/C (second compound 0.0316 µM, first compound 0.0316 µM): 114%
viability, T/C (second compound 0.0316 µM, first compound 0.1 µM): 100%
viability, T/C (second compound 0.0316 µM, first compound 0.316 µM): 98%
viability, T/C (second compound 0.0316 µM, first compound 1 µM): 84.8%
viability, T/C (second compound 0.0316 µM, first compound 3.16 µM): 40.2%
viability, T/C (second compound 0.0316 µM, first compound 10 µM): 7.93%
viability, T/C (second compound 0.1 µM, first compound 0.0316 µM): 102%
viability, T/C (second compound 0.1 µM, first compound 0.1 µM): 114%
viability, T/C (second compound 0.1 µM, first compound 0.316 µM): 95.6%
viability, T/C (second compound 0.1 µM, first compound 1 µM): 75.4%
viability, T/C (second compound 0.1 µM, first compound 3.16 µM): 18.1%
viability, T/C (second compound 0.1 µM, first compound 10 µM): 10.4%
viability, T/C (second compound 0.316 µM, first compound 0.0316 µM): 101%
viability, T/C (second compound 0.316 µM, first compound 0.1 µM): 99.8%
viability, T/C (second compound 0.316 µM, first compound 0.316 µM): 102%
viability, T/C (second compound 0.316 µM, first compound 1 µM): 96.6%
viability, T/C (second compound 0.316 µM, first compound 3.16 µM): 29.2%
viability, T/C (second compound 0.316 µM, first compound 10 µM): 8.56%
viability, T/C (second compound 1 µM, first compound 0.0316 µM): 94.7%
viability, T/C (second compound 1 µM, first compound 0.1 µM): 89.8%
viability, T/C (second compound 1 µM, first compound 0.316 µM): 88%
viability, T/C (second compound 1 µM, first compound 1 µM): 95.1%
viability, T/C (second compound 1 µM, first compound 3.16 µM): 50.8%
viability, T/C (second compound 1 µM, first compound 10 µM): 9.76%
viability, T/C (second compound 3.16 µM, first compound 0.0316 µM): 106%
viability, T/C (second compound 3.16 µM, first compound 0.1 µM): 119%
viability, T/C (second compound 3.16 µM, first compound 0.316 µM): 75.4%
viability, T/C (second compound 3.16 µM, first compound 1 µM): 77.6%
viability, T/C (second compound 3.16 µM, first compound 3.16 µM): 34.8%
viability, T/C (second compound 3.16 µM, first compound 10 µM): 13.1%
viability, T/C (second compound 10 µM, first compound 0.0316 µM): 96.5%
viability, T/C (second compound 10 µM, first compound 0.1 µM): 99.3%
viability, T/C (second compound 10 µM, first compound 0.316 µM): 107%
viability, T/C (second compound 10 µM, first compound 1 µM): 97.4%
viability, T/C (second compound 10 µM, first compound 3.16 µM): 43.9%
viability, T/C (second compound 10 µM, first compound 10 µM): 7.86%
